Structures can show the parent of a compound that is named as a salt.

The test system of one assay is cultured human mast cells (CHMC). As to the kind of experiment: CHMC low cell density IgE activation: tryptase assay. The class given is cell-based. To be noted: Homo sapiens, Mast cell, low cell density, IgE activation, 3 pt; read-out: LD Tryptase, CHMC, IgE, 3 pt. The method in brief:
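Fluorogenic readout of tryptase released into the supernatant (30 min substrate incubation, room temperature) measures degranulation. Cells were plated at low density (1000–1500/well, varied by donor) and triggered with anti-IgE for 30 min at 37 °C.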
For the molecule `CNC(=O)c1ccc(Nc2nc(Nc3ccc(Cl)c(C(=O)NC)c3)ncc2F)cc1Cl` [Compound 484], the IC50 is above 10 µM.
For the molecule `CNC(=O)c1ccc(Nc2nc(Nc3ccc4cc[nH]c4c3)ncc2F)cc1Cl` [Compound 485, N4-[3-Chloro-4-(N-methylamino)carbonylphenyl]-5-fluoro-N2-(indol-6-yl)-2,4-pyrimidinediamine], the IC50 was below 10 µM.
Same read-out and setting: the same measure for `Oc1cccc(Nc2nc(Nc3cccc(-c4ncco4)c3)ncc2F)c1` [Compound 511, 5-Fluoro-N4-(3-hydroxyphenyl)-N2-[3-(oxazol-2-yl)phenyl]-2,4-pyrimidinediamine]: below 10 µM.
Same read-out and setting: the same measure for `Oc1cccc(Nc2nc(Nc3cccc(-c4ncon4)c3)ncc2F)c1` [Compound 522]: below 10 µM; for `COc1cc(N(C)c2nc(Cl)ncc2F)cc(OC)c1OC` [Compound 523]: above 10 µM.
Same read-out and setting: with `Cc1cc(Nc2nc(Nc3cccc(-c4ncco4)c3)ncc2F)no1` [Compound 524, 5-Fluoro-N4-(5-methylisoxazol-3-yl)-N2-[3-(oxazol-2-yl)phenyl]-2,4-pyrimidinediamine] the figure was below 10 µM; with `Cc1onc(-c2ccccc2)c1Nc1nc(Nc2cccc(-c3ncco3)c2)ncc1F` [Compound 525], below 10 µM; with `Cn1nc(-c2ccccc2)cc1Nc1nc(Nc2cccc(-c3ncco3)c2)ncc1F` [Compound 526], below 10 µM.
Take `COC(=O)c1cc(Nc2ncc(F)c(Nc3cc(C(=O)OC)cc(-c4ncco4)c3)n2)cc(-c2ncco2)c1` [Compound 527]: the IC50 is below 10 µM.
Turning to `Cc1noc(C)c1Nc1ncc(F)c(Nc2c(C)noc2C)n1` [Compound 528], the IC50 is above 10 µM.
With `Fc1cnc(Nc2cc(-c3ncco3)cc(C(F)(F)F)c2)nc1Nc1cc(-c2ncco2)cc(C(F)(F)F)c1` [Compound 529], the IC50 was below 10 µM.
Regarding `Cc1noc(C)c1Nc1nc(Nc2cccc(-c3ncco3)c2)ncc1F` [Compound 534, N4-(3,5-Dimethylisoxazol-4-yl)-5-fluoro-N2-[3-(oxazol-2-yl)phenyl]-2,4-pyrimidinediamine], the IC50 was below 10 µM.
Still for that read-out and setting: with `COC(=O)c1cc(Nc2ncc(F)c(Nc3c(C)noc3C)n2)cc(-c2ncco2)c1` [Compound 535] the figure was below 10 µM; with `COc1cc(Nc2ncc(F)c(Nc3ccc4c(c3)NC(=O)C(C)(C)O4)n2)cc(OC)c1OC` [Compound 543], below 10 µM; with `COc1cc(Nc2ncc(F)c(Nc3ccc(OC)c(N)n3)n2)cc(OC)c1` [Compound 544], below 10 µM.
Still for that read-out and setting: with `COc1ccc(Nc2nc(Nc3cc(OC)c(OC)c(OC)c3)ncc2F)nc1N` [Compound 545] the figure was below 10 µM; with `COC(=O)c1cc2cc(Nc3ncc(F)c(Nc4ccc(OC)c(N)n4)n3)ccc2o1` [Compound 546], below 10 µM.
Turning to `COc1c(Cl)cc(Nc2nc(Nc3cc(Cl)c(O)c(Cl)c3)ncc2F)cc1Cl` [Compound 548], the IC50 was below 10 µM.
Turning to `Cc1cc(C)cc(Nc2nc(Nc3cc(Cl)cc(Cl)c3)ncc2F)c1` [Compound 556], the IC50 is below 10 µM.
Same read-out and setting: with `CNC(=O)c1cc2cccc(Nc3ncc(F)c(Nc4cc(OC)cc(C(F)(F)F)c4)n3)c2[nH]1` [Compound 558, 5-Fluoro-N4-(3-methoxy-5-trifluoromethylphenyl)-N2-[2-(N-methylamino)carbonylindol-7-yl]-2,4-pyrimidinediamine] the figure was below 10 µM.
Still for that read-out and setting: with `Cc1cc(C)cc(Nc2nc(Nc3cc(Cl)c(O)c(Cl)c3)ncc2F)c1` [Compound 559] the figure was below 10 µM; with `Cc1cc(C)cc(Nc2nc(Nc3cc(C)c(Cl)c(C)c3)ncc2F)c1` [Compound 560], above 10 µM.

Staying with this assay, now noted: Homo sapiens, Mast cell, low cell density, IgE activation, 8 pt; read-out: LD Tryptase, CHMC, IgE, 8 pt.
Consider `CNC(=O)c1ccc(Nc2nc(Nc3ccc4cc[nH]c4c3)ncc2F)cc1Cl` [Compound 485, N4-[3-Chloro-4-(N-methylamino)carbonylphenyl]-5-fluoro-N2-(indol-6-yl)-2,4-pyrimidinediamine], for which the IC50 is below 10 µM.
Same read-out and setting: the same measure for `CC1(C)Oc2ccc(Nc3nc(Nc4ccc5nc(C(F)(F)F)[nH]c5c4)ncc3F)cc2NC1=O` [Compound 539, N4-(2,2-Dimethyl-3-oxo-4H-benz[1,4]oxazin-6-yl)-5-fluoro-N2-(2-trifluoromethyl-3H-benzimidazol-5-yl)-2,4-pyrimidinediamine p-Toluenesulfonic Acid Salt]: below 10 µM; for `COc1cc(Nc2ncc(F)c(Nc3ccc4c(c3)NC(=O)C(C)(C)O4)n2)cc(OC)c1OC` [Compound 543]: below 10 µM; for `COc1c(Cl)cc(Nc2nc(Nc3cc(Cl)c(O)c(Cl)c3)ncc2F)cc1Cl` [Compound 548]: below 10 µM.
Same read-out and setting: with `COc1cc(Nc2ncc(F)c(Nc3cc(C)cc(C)c3)n2)cc(OC)c1OC` [Compound 553] the figure was below 10 µM; with `Cc1cc(C)cc(Nc2nc(Nc3cc(C)c(O)c(Cl)c3)ncc2F)c1` [Compound 554], below 10 µM; with `Cc1cc(C)cc(Nc2nc(Nc3cc(Cl)cc(Cl)c3)ncc2F)c1` [Compound 556], below 10 µM.
The same measure, in the same setting: the same measure for `CNC(=O)c1cc2cccc(Nc3ncc(F)c(Nc4cc(C)cc(C)c4)n3)c2[nH]1` [Compound 557, N4-(3,5-Dimethylphenyl)-5-fluoro-N2-[2-(N-methylamino)carbonylindol-7-yl]-2,4-pyrimidinediamine]: above 10 µM; for `Cc1cc(C)cc(Nc2nc(Nc3cc(Cl)c(O)c(Cl)c3)ncc2F)c1` [Compound 559]: below 10 µM.

Staying with this assay, now noted: low cell density CHMC, IgE activation, tryptase release, 3 point; read-out: LD Tryptase, CHMC, IgE, 3 pt.
Turning to `Fc1cnc(Nc2cc(Cl)cc(Cl)c2)nc1Nc1ccc2c(c1)OC(F)(F)O2` [Compound 565], the IC50 is below 10 µM.
Still for that read-out and setting: the same measure for `Cc1cc(Nc2ncc(F)c(Nc3ccc4c(c3)OC(F)(F)O4)n2)cc(C)c1Cl` [Compound 566]: above 10 µM; for `COc1cc(Nc2ncc(F)c(Nc3ccc4c(c3)OC(F)(F)O4)n2)cc(C(F)(F)F)c1` [Compound 568]: above 10 µM.
Turning to `Cc1cc(Nc2ncc(F)c(Nc3ccc4c(c3)OC(F)(F)O4)n2)cc(C(F)(F)F)c1` [Compound 569], the IC50 is below 10 µM.
Same read-out and setting: with `CNC(=O)COc1c(C)cc(Nc2ncc(F)c(Nc3ccc(OC)c(Cl)c3)n2)cc1C` [Compound 571, N4-(3-Chloro-4-methoxyphenyl)-N2-[3,5-dimethyl-4-(N-methylamino)carbonylmethyleneoxyphenyl]-5-fluoro-2,4-pyrimidinediamine] the figure was below 10 µM.

Staying with this assay, now noted: low cell density CHMC, IgE activation, tryptase release, 8 point; read-out: LD Tryptase, CHMC, IgE, 8 pt.
For the molecule `CNC(=O)COc1c(C)cc(Nc2ncc(F)c(Nc3ccc(OC)c(Cl)c3)n2)cc1C` [Compound 571, N4-(3-Chloro-4-methoxyphenyl)-N2-[3,5-dimethyl-4-(N-methylamino)carbonylmethyleneoxyphenyl]-5-fluoro-2,4-pyrimidinediamine], the IC50 is below 10 µM.

The same assay, now with this note: low cell density, IgE activation, 3 pt; read-out: LD Tryptase, CHMC, IgE, 3 pt.
On to `CC(C)(C)c1nnc(-c2cccc(Nc3ncc(F)c(Nc4ccc5c(c4)OCCO5)n3)c2)o1` [Compound 531, N2-[ (2-tert-Butyl-1,3,4-oxadiazol-5-yl)phenyl]-N4-(3,4-ethylenedioxyphenyl)-5-fluoro-2,4-pyrimidinediamine], for which the IC50 was below 10 µM.
Same read-out and setting: with `CC(C)(C)c1nnc(-c2cccc(Nc3ncc(F)c(Nc4cccc(O)c4)n3)c2)o1` [Compound 532, N2-[ (2-tert-Butyl-1,3,4-oxadiazol-5-yl)phenyl]-5-fluoro-N4-(3-hydroxyphenyl)-2,4-pyrimidinediamine] the figure was below 10 µM; with `CN(c1ccc2c(c1)OCCO2)c1nc(NN)ncc1F` [Compound 533, N4-(3,4-Ethylenedioxyphenyl)-5-fluoro-N4-methyl-2-hydrazine-4-pyrimidineamine], above 10 µM.
As to `CNC(=O)COc1cccc(Nc2ncc(F)c(Nc3ccc(OC)c(N)n3)n2)c1` [Compound 547, N4-(2-Amino-3-methoxypyrid-6-yl)-5-fluoro-N2[3-(N-methylaminocarbonylmethyleneoxy)phenyl]-2,4-pyrimidinediamine], the IC50 is below 10 µM.

Staying with this assay, now noted: low cell density, IgE activation, 8 pt; read-out: LD Tryptase, CHMC, IgE, 8 pt.
As to `CNC(=O)COc1cccc(Nc2ncc(F)c(Nc3ccc(C(=O)NC)c(Cl)c3)n2)c1` [Compound 483, N4-[3-Chloro-4-(N-methylamino)carbonylphenyl]-5-fluoro-N2-[3-(N-methylamino)carbonylmethyleneoxyphenyl]-2,4-pyrimidinediamine], the IC50 is below 10 µM.
`Oc1c(Cl)cc(Nc2ncc(F)c(Nc3ccc4c(c3)OC(F)(F)O4)n2)cc1Cl` [Compound 564]: the IC50 was below 10 µM.

Source of the values: patent US20220073536A1 (Rigel Pharmaceuticals, Inc., priority 2003, published 2022).
